Data taken from ChEMBL document CHEMBL5236628 (J Med Chem, 2022).
Values after ≈ are worked out from the molar mass of the structure shown. Active and inactive are the calls of the source. The rule behind the calls is not given here.

Assays:
[1] = physchem; details: buffer, pH 7.4
[2] = tested on: Plasmodium falciparum; assay: microbe, parasite or virus in culture; details: NF54, 72 h
[3] = tested on: Plasmodium falciparum; assay: Antiplasmodial activity against multidrug resistant Plasmodium falciparum K1 incubated for 72 hrs by microplate reader assay; type: functional, organism-based; details: K1, 72 h
[4] = Cytotoxicity against CHO cells measured after 48 hrs by MTT assay; details: Chinese hamster
[5] = Selectivity index, ratio of IC50 for Plasmodium falciparum NF54 to IC50 for CHO cells; details: hamster
[6] = target: Voltage-gated inwardly rectifying potassium channel KCNH2 (Homo sapiens, UniProt Q12809); assay: Inhibition of human ERG expressed in CHO-K1 cells by Q-patch clamp assay
[7] = tested on: Hemozoin; assay: Inhibition of Beta-hematin in Plasmodium falciparum NF54 assessed as hemozoin formation after 36 hrs by flow cytometry analysis
[8] = tested on: Plasmodium falciparum; assay: Antiplasmodial activity against early stage (I to III) Plasmodium falciparum incubated for 48 hrs by bioluminescence assay; type: functional, organism-based
[9] = tested on: Plasmodium falciparum; assay: Antiplasmodial activity against chloroquine sensitive Plasmodium falciparum NF54 infected in human erythrocytes incubated for 48 hrs followed by addition of [3H]-hypoxanthine and measured after 24 hrs by beta-plate liquid scintillation counting method; type: functional, organism-based
[10] = tested on: Plasmodium falciparum; assay: Antiplasmodial activity against multidrug resistant Plasmodium falciparum K1 infected in human erythrocytes incubated for 48 hrs followed by addition of [3H]-hypoxanthine and measured after 24 hrs by beta-plate liquid scintillation counting method; type: functional, organism-based
[11] = tested on: HepG2; assay: Cytotoxicity against human HepG2 cells after 48 hrs by CellTiter Glo assay; type: toxicity, cell-based; details: hepg2, 48 h

Voltage-gated inwardly rectifying potassium channel KCNH2, sequence (Q12809 whole entry): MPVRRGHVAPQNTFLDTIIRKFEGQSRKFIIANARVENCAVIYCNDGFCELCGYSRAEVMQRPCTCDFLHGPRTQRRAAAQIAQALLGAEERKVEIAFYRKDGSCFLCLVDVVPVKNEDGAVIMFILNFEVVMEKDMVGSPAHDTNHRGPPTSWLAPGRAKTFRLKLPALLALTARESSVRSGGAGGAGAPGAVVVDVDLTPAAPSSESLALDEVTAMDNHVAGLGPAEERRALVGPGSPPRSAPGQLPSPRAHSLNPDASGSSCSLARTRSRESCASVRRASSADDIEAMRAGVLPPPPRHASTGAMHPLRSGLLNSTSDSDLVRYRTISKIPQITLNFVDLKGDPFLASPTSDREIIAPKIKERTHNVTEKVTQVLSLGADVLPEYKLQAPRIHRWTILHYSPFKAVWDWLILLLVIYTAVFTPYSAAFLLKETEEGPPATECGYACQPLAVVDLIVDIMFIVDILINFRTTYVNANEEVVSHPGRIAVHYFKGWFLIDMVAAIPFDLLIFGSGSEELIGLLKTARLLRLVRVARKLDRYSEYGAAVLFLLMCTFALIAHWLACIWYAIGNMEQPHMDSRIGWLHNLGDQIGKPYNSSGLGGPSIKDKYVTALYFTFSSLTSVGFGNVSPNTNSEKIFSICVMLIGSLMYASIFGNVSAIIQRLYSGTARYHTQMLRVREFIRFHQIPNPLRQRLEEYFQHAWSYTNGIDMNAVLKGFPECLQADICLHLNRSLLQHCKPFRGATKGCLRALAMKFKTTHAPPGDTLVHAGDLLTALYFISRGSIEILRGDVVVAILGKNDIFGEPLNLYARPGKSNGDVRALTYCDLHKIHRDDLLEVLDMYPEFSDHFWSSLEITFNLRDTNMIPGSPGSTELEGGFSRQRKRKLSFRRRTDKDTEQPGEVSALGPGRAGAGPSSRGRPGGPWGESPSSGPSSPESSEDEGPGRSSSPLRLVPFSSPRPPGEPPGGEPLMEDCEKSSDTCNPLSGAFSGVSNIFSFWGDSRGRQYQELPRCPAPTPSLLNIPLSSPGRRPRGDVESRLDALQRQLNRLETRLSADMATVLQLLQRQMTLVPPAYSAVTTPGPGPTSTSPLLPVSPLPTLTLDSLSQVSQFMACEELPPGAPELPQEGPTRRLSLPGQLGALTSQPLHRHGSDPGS

solubility kinetic at 2 h [1] | IC50 [2] | SMILES | also measured
160 µM (≈ 73.7 µg/mL) | > 6000 nM | Cc1noc(-c2ccc(CCN3CCC(Nc4nc5cc(C(=O)O)ccc5n4C)CC3)cc2)n1 | –
80 µM (≈ 38.8 µg/mL) | 514 nM | Cc1noc(-c2ccc(CCN3CCC(Nc4nc5cc(Cl)c(Cl)cc5n4C)CC3)cc2)n1 | –
– | 304 nM | Cc1noc(-c2ccc(CCN3CCC(Nc4nc5ccccc5n4Cc4cccnc4)CC3)cc2)n1 | –
40 µM (≈ 19.4 µg/mL) | 422 nM | Cc1noc(-c2ccc(CCN3CCC(Nc4nc5cc(C(F)(F)F)ccc5n4C)CC3)cc2)n1 | –
120 µM (≈ 55.2 µg/mL) | 831 nM | CN(C)Cc1noc(-c2ccc(CCN3CCC(Nc4nc5ccccc5n4C)CC3)cc2)n1 | –
60 µM (≈ 26.7 µg/mL) | 492 nM | CC(C)c1noc(-c2ccc(CCN3CCC(Nc4nc5ccccc5n4C)CC3)cc2)n1 | –
– | 448 nM | Cc1noc(-c2ccc(CCN3CC[C@@H](Nc4nc5ccccc5n4Cc4ccc(C#N)cc4)C3)cc2)n1 | –
– | – | CCN(CC)CCCC(C)Nc1ccnc2cc(Cl)ccc12 (stereo not drawn) [CHLOROQUINE] | IC50 [7]: 22000 nM
20 µM (≈ 8.89 µg/mL) | 702 nM | Cc1noc(-c2ccc(CCN3CCC(Nc4nc5ccccc5n4C(C)C)CC3)cc2)n1 | –
40 µM (≈ 21.2 µg/mL) | 446 nM | Cc1noc(-c2ccc(CCN3CC4(CCN(c5nc6ccccc6n5Cc5ccc(C#N)cc5)C4)C3)cc2)n1 | –
– | 515 nM | Cc1noc(-c2ccc(CCN3CC[C@H](Nc4nc5ccccc5n4Cc4ccc(C#N)cc4)C3)cc2)n1 | –
80 µM (≈ 35.8 µg/mL) | > 6000 nM | Cn1c(NC2CCN(CCc3ccc(C(=O)N4CCOCC4)cc3)CC2)nc2ccccc21 | –
– | – | CN(C)c1ccc2nc3ccc(N(C)C)cc3[s+]c2c1 [METHYLENE BLUE ANHYDROUS] | IC50 [8]: 200 nM
80 µM (≈ 33.4 µg/mL) | 2610 nM | C=CCNC(=O)c1ccc(CCN2CCC(Nc3nc4ccccc4n3C)CC2)cc1 | –
120 µM (≈ 50.6 µg/mL) | 4170 nM | Cn1c(NC2CCN(CCc3ccc(C(=O)NCCO)cc3)CC2)nc2ccccc21 | –
20 µM (≈ 10.7 µg/mL) | 460 nM | Cc1noc(-c2ccc(CCN3CCC(Nc4nc5ccccc5n4CC4CCC(F)(F)CC4)CC3)cc2)n1 | –
20 µM (≈ 10.4 µg/mL) | 519 nM | Cc1nnc(-c2ccc(CCN3CCC(Nc4nc5ccccc5n4Cc4ccc(C#N)cc4)CC3)cc2)o1 | –
60 µM (≈ 26.7 µg/mL) | 163 nM | Cc1noc(-c2ccc(CCN3CCC(Nc4nc5cc(C)c(C)cc5n4C)CC3)cc2)n1 | –

solubility kinetic at 2 h [1] | IC50 [2] | SMILES | also measured
100 µM (≈ 42.1 µg/mL) | > 6000 nM | Cn1c(NC2CCN(CCc3ccc(C(=O)NCCN)cc3)CC2)nc2ccccc21 | –
80 µM (≈ 39.6 µg/mL) | 720 nM | Cc1noc(-c2ccc(CCN3CCC(Nc4nc5cc(Br)ccc5n4C)CC3)cc2)n1 | –
60 µM (≈ 29.2 µg/mL) | 1280 nM | Cn1c(NC2CCN(CCc3ccc(C(=O)N4CCN5CCCC5C4)cc3)CC2)nc2ccccc21 (stereo not drawn) | –
80 µM (≈ 35.3 µg/mL) | 611 nM | Cc1noc(-c2ccc(CCN3CCC(Nc4nc5cc(C#N)ccc5n4C)CC3)cc2)n1 | –
120 µM (≈ 56.9 µg/mL) | 496 nM | COC(=O)c1ccc2c(c1)nc(NC1CCN(CCc3ccc(-c4nc(C)no4)cc3)CC1)n2C | IC50 [6]: 490 nM
60 µM (≈ 26.6 µg/mL) | 484 nM | Cn1c(NC2CCN(CCc3ccc(-c4nc(C5CC5)no4)cc3)CC2)nc2ccccc21 | –
40 µM (≈ 18.3 µg/mL) | – | COc1ccc(CCN2CCC(Nc3nc4ccccc4n3Cc3ccc(F)cc3)CC2)cc1 [ASTEMIZOLE] | Activity [11]: Non-Toxic
80 µM (≈ 35.8 µg/mL) | 3990 nM | Cn1c(NC2CCN(CCc3ccc(C(=O)N4CCC(O)C4)cc3)CC2)nc2ccccc21 (stereo not drawn) | –
80 µM (≈ 37 µg/mL) | 383 nM | CSCc1noc(-c2ccc(CCN3CCC(Nc4nc5ccccc5n4C)CC3)cc2)n1 | –
120 µM (≈ 47.1 µg/mL) | 1450 nM | COC(=O)c1ccc(CCN2CCC(Nc3nc4ccccc4n3C)CC2)cc1 | –
60 µM (≈ 29.7 µg/mL) | 4650 nM | Cc1noc(-c2ccc(CCN3CCC(Nc4nc5cc(S(C)(=O)=O)ccc5n4C)CC3)cc2)n1 | –
80 µM (≈ 34.8 µg/mL) | 834 nM | Cc1noc(-c2ccc(CCN3CCC(Nc4nc5cc(F)ccc5n4C)CC3)cc2)n1 | IC50 [6]: 28700 nM
100 µM (≈ 43.3 µg/mL) | 567 nM | Cn1c(NC2CCN(CCc3ccc(-c4nc(CO)no4)cc3)CC2)nc2ccccc21 | –
80 µM (≈ 36.2 µg/mL) | 1160 nM | Cc1noc(-c2ccc(CCN3CCC(Nc4nc5cc(F)c(F)cc5n4C)CC3)cc2)n1 | –
80 µM (≈ 36.9 µg/mL) | > 6000 nM | Cn1c(NC2CCN(CCc3ccc(C(=O)N4CCC(C)(O)C4)cc3)CC2)nc2ccccc21 (stereo not drawn) | –
80 µM (≈ 35.7 µg/mL) | 309 nM | COc1ccc2c(c1)nc(NC1CCN(CCc3ccc(-c4nc(C)no4)cc3)CC1)n2C | –
– | – | CCN(CC)Cc1cc(Nc2ccnc3cc(Cl)ccc23)ccc1O [AMODIAQUINE] | IC50 [7]: 10000 nM

SMILES | solubility kinetic at 2 h [1] | IC50 [2] | also measured
N#Cc1ccc(Cn2c(NC3CCN(CCc4ccc(-c5ncon5)cc4)CC3)nc3ccccc32)cc1 | 40 µM (≈ 20.1 µg/mL) | 89 nM | IC50 [3]: 399 nM; IC50 at 48 h ([4]; CHO cells): 16600 nM; selectivity ratio [5]: 187
C[C@@H]1CN=C(c2ccc(CCN3CCC(Nc4nc5ccccc5n4Cc4ccc(C#N)cc4)CC3)cc2)O1 | 60 µM (≈ 31.1 µg/mL) | 104 nM | IC50 [3]: 352 nM
Cn1c(NC2CCN(CCc3ccc(C(=O)N4CCNCC4)cc3)CC2)nc2ccccc21 | 120 µM (≈ 53.6 µg/mL) | 3410 nM | IC50 [6]: > 30000 nM
Cn1c(NC2CCN(CCc3ccc(C(=O)O)cc3)CC2)nc2ccccc21 | 160 µM (≈ 60.6 µg/mL) | > 6000 nM | –
N#Cc1ccc(Cn2c(NC3CCN(CCc4ccc(-c5nc(C(F)(F)F)no5)cc4)CC3)nc3ccccc32)cc1 | 10 µM (≈ 5.72 µg/mL) | 22 nM | IC50 [3]: 27 nM; IC50 at 48 h ([4]; CHO cells): 750 nM; IC50 [6]: 470 nM; selectivity ratio [5]: 34; inhibition [7]: Active
C[C@H]1COC(c2ccc(CCN3CCC(Nc4nc5ccccc5n4Cc4ccc(C#N)cc4)CC3)cc2)=N1 | 20 µM (≈ 10.4 µg/mL) | 74 nM | IC50 [3]: 263 nM; IC50 at 48 h ([4]; CHO cells): 38900 nM; selectivity ratio [5]: 525
Cn1c(NC2CCN(CCc3ccc(-c4nc(C(=O)O)no4)cc3)CC2)nc2ccccc21 | 120 µM (≈ 53.6 µg/mL) | > 6000 nM | IC50 [6]: > 30000 nM
Cn1c(NC2CCN(CCc3ccc(C(=O)NC4(CO)CC4)cc3)CC2)nc2ccccc21 | 60 µM (≈ 26.9 µg/mL) | 1730 nM | IC50 [6]: > 30000 nM
NCCn1c(NC2CCN(CCc3ccc(-c4nc(C(F)(F)F)no4)cc3)CC2)nc2ccccc21 | > 200 µM | – | IC50 [9]: 90 nM; IC50 [10]: 36 nM
Cc1noc(-c2ccc(CCN3CCC(Nc4nc5ccccc5n4CC4CCCCC4)CC3)cc2)n1 | 80 µM (≈ 39.9 µg/mL) | 93 nM | IC50 [3]: 156 nM; IC50 at 48 h ([4]; CHO cells): 44400 nM; IC50 [6]: 890 nM; selectivity ratio [5]: 477
Cc1nc(-c2ccc(CCN3CCC(Nc4nc5ccccc5n4Cc4ccc(C#N)cc4)CC3)cc2)no1 | 40 µM (≈ 20.7 µg/mL) | 51 nM | IC50 [3]: 174 nM; IC50 at 48 h ([4]; CHO cells): 5870 nM; selectivity ratio [5]: 115
N#Cc1ccc(Cn2c(NC3CCN(CCc4ccc(-c5noc(C(F)(F)F)n5)cc4)CC3)nc3ccccc32)cc1 | 20 µM (≈ 11.4 µg/mL) | 21 nM | IC50 [3]: 49 nM; IC50 at 48 h ([4]; CHO cells): 3850 nM; selectivity ratio [5]: 175; inhibition [7]: Active
Cc1noc(-c2ccc(CCN3CCC(Nc4nc5ccccc5n4Cc4ccc(C(F)(F)F)cc4)CC3)cc2)n1 | 10 µM (≈ 5.61 µg/mL) | 30 nM | IC50 [3]: 104 nM; IC50 at 48 h ([4]; CHO cells): 3330 nM; selectivity ratio [5]: 111
Cc1noc(-c2ccc(CCN3CCC(Nc4nc5ccccc5n4C)CC3)cc2)n1 | 160 µM (≈ 66.6 µg/mL) | 33 nM | IC50 [3]: 82 nM; IC50 at 48 h ([4]; CHO cells): 9080 nM; IC50 [6]: 350 nM; selectivity ratio [5]: 275
Cn1c(NC2CCN(CCc3ccc(-c4nc(C(C)(C)C)no4)cc3)CC2)nc2ccccc21 | – | 64 nM | IC50 [3]: 300 nM; IC50 [8]: 1180 nM; Activity [11]: Non-Toxic; IC50 at 48 h ([4]; cho): 4690 nM
Cc1noc(-c2ccc(CCN3CCC(Nc4nc5ccccc5n4Cc4ccc(C#N)cc4)CC3)cc2)n1 | – | 97 nM | IC50 [3]: 178 nM; IC50 at 48 h ([4]; cho): 19700 nM
Cc1noc(-c2ccc(CCN3CCC(Nc4nc5ccccc5n4Cc4ccc(C(F)(F)F)nc4)CC3)cc2)n1 | 40 µM (≈ 22.5 µg/mL) | 44 nM | IC50 [3]: 173 nM; IC50 at 48 h ([4]; CHO cells): 5630 nM; IC50 [6]: 250 nM; selectivity ratio [5]: 128; inhibition [7]: Active
